Test [1] relates to hepatocellular carcinoma cells (HepG2, Hep3B, SKHep1, and Huh-7). Description: MTT assay in different hepatocellular carcinoma cells. The format is cell-based. The following applies: SKHep1, Huh-7, 72 h, read-out: IC50 in liver cancer cells. Here is the method: FIG. 2A is a graph comparison of IC50 of Uttroside B in a panel of cancer cells of different origin. The cancer cell lines HeLa, A375, HepG2, MDA-MB-231, HL 60, A549 and HCT116 were treated with Uttroside B as indicated, incubated for 72 h and the cell viability was assessed by MTT assay. FIG. 2B is a graph showing dose dependent effect of Uttroside B in the liver cancer cell lines and in normal immortalized hepatocytes. The liver cancer cell lines HepG2, Hep3B, SKHEP-1, Huh-7 and normal hepatocytes (Chang liver), were treated with Uttroside B incubated for 72 h and the cell viability was assessed by MTT assay. FIG. 2C is a graph comparison of IC50 of Uttroside B with sorafenib. HepG2 cells were treated with Uttroside B as indicated, incubated for 72 h, and the cell viability was assessed by MTT assay. […] The clones developed were counted and plotted as a graph. Colony containing more than four cells was counted as one clone. […]
MTT [3-(4,5-dimethylthiazole-2-yl)-2,5-diphenyltetrazolium bromide] assay is a standard colorimetric assay, suitable for analyzing proliferation, viability, and cytotoxicity. […] After overnight incubation, cells were treated with different concentrations of organic extracts (25-250 μg/ml) of S. nigrum and the isolated compound Uttroside B (250-1250 nM) for 72 h and cytotoxicity was measured. […]
For orientation: Tetrazolium assays rely on reduction of a dye to a coloured formazan, in cell work by metabolically active cells.

Test [2] deals with mTOR pathway in HepG2 cells. Description: Western blot of mTOR and downstream target phosphorylation. Type of test: cell-based, human. Here is the method: FIGS. 4A-4E are images showing Uttroside B inhibits MAPK and mTOR signaling, some of the crucial survival signals in liver cancer. […] HepG2 cells were treated with Uttroside B for different time intervals (0-240 min) and the whole cell lysate was resolved on a 10% gel and immunoblotted against phospho-ERK1/2 and phospho-Akt antibodies. Taxol was used as a positive control. […] HepG2 cells were treated with Uttroside B at different time intervals and the whole cell lysate was resolved on an 8% gel and immunoblotted against phospho-mTOR (2448) and phospho-mTOR (2481) antibodies.
Western blot analysis. Approximately 0.5×10^6 cells were grown on 60 mm culture plates and exposed to drugs as indicated for the desired time. The cells were then scraped out, washed in ice cold 1× PBS and pelleted down at 13000 rpm for 2 min. […]
Uttroside B inhibits mTOR signaling, a crucial survival signal in liver cancer. […] Concomitantly, the phosphorylation of p70S6 kinase and 4E-BP-1, two m-TOR substrates whose phosphorylation can be considered as the read out of m-TOR activity, was found reduced in response to Uttroside B-treatment. […]
(In general: A western blot detects proteins with antibodies after separation by electrophoresis.)

Broadly, the IC50 is the concentration that gives 50% inhibition. Take `C[C@H](CC[C@@]1(O)O[C@H]2C[C@H]3[C@@H]4CC[C@H]5C[C@@H](O[C@@H]6O[C@H](CO)[C@H](O[C@@H]7O[C@H](CO)[C@@H](O)[C@H](O[C@@H]8OC[C@@H](O)[C@H](O)[C@H]8O)[C@H]7O[C@@H]7O[C@H](CO)[C@@H](O)[C@H](O)[C@H]7O)[C@H](O)[C@H]6O)CC[C@]5(C)[C@H]4CC[C@]3(C)[C@H]2[C@@H]1C)CO[C@@H]1O[C@H](CO)[C@@H](O)[C@H](O)[C@H]1O` [Uttroside B]: the IC50 in test [1] fell in the range of 400 to 600 nM. In addition, in test [2], the “phosphorylation of p70S6 kinase and 4E-BP-1” value was “found reduced”. For the same compound, the “phosphorylation of mTOR” value in test [2] (different time intervals) was “time dependent decrease in the phosphorylation of m-TOR at 2448 and 2481 phosphorylation sites”.

Source of the values: patent US11607422B2, “Uttroside B and derivatives thereof as therapeutics for hepatocellular carcinoma” (Rajiv Gandhi Centre for Biotechnology, an Autonomous …, priority 2016, dated 2023).
